Species: Rattus norvegicus
Test: Open TG-GATES - Regimen: Daily Repeat
Format: toxicity, organism-based, Sprague-Dawley
Parameters: regimen Daily Repeat, gender Male, age 6 weeks
Settings: in vivo, po, route gavage; for APTT / Bas / Eos / Fbg / Hb / Ht / Lym / MCH / MCHC / MCV / Mono / Neu / PT / Plat / RBC / Ret / WBC: tissue Blood; for KIDNEY_L / KIDNEY_R / KIDNEY_TOTAL: tissue Kidney; for LIVER: tissue Liver; for A/G / ALP / ALT / AST / BUN / CRE / Ca / Cl / DBIL / GLC / IP / K / LDH / Na / PL / RALB / TBIL / TC / TG / TP / gamma-GTP: tissue Plasma
[1] = 0 mg/kg, 72 h, dose level Control, time 3 day
[2] = 0 mg/kg, […], dose level Control, time 7 day
[3] = 0 mg/kg, […], dose level Control, time 14 day
[4] = 0 mg/kg, […], dose level Control, time 28 day
[5] = 10 mg/kg, 72 h, dose level Low, time 3 day
[6] = 10 mg/kg, […], dose level Low, time 7 day
[7] = 10 mg/kg, […], dose level Low, time 14 day
[8] = 10 mg/kg, […], dose level Low, time 28 day

## Nc1ccc(Cc2ccc(N)cc2)cc1
[1]
  TERMINAL_BW: 240.9 g
  APTT: 13.2 s
  Bas: 0%
  Eos: 1%
  Fbg: 284.6 mg/dL
  Hb: 13.1 g/dL
  Ht: 38.4%
  Lym: 75%
  MCH: 21.1 pg
  MCHC: 34%
  MCV: 62.1 fL
  Mono: 2.8%
  Neu: 20.2%
  PT: 11.7 s
  Plat: 134 x10_4/uL
  RBC: 618.2 x10_4/ul
  Ret: 6.4%
  WBC: 93.3 x10_2/uL
  KIDNEY_L: 1 g
  KIDNEY_R: 1 g
  KIDNEY_TOTAL: 2 g
  LIVER: 11.1 g
  A/G: 0.8
  ALP: 1856.4 IU/L
  ALT: 42 IU/L
  AST: 71.6 IU/L
  BUN: 15.2 mg/dL
  CRE: 0.2 mg/dL
  Ca: 11 mg/dL
  Cl: 105.4 meq/L
  DBIL: 0.018 mg/dL
  GLC: 177.2 mg/dL
  IP: 7.6 mg/dL
  K: 4 meq/L
  LDH: 76.6 IU/L
  Na: 142.8 meq/L
  PL: 139 mg/dL
  RALB: 2.6 g/dL
  TBIL: 0.038 mg/dL
  TC: 75 mg/dL
  TG: 108.2 mg/dL
  TP: 5.8 g/dL
  gamma-GTP: 1 IU/L
[2]
  TERMINAL_BW: 282.7 g
  APTT: 15.2 s
  Bas: 0.2%
  Eos: 0.8%
  Fbg: 277.4 mg/dL
  Hb: 13.6 g/dL
  Ht: 39.5%
  Lym: 75.4%
  MCH: 20.9 pg
  MCHC: 34.5%
  MCV: 60.7 fL
  Mono: 2.2%
  Neu: 20.4%
  PT: 11.4 s
  Plat: 137.3 x10_4/uL
  RBC: 650.6 x10_4/ul
  Ret: 5.3%
  WBC: 99.1 x10_2/uL
  KIDNEY_L: 1.2 g
  KIDNEY_R: 1.1 g
  KIDNEY_TOTAL: 2.3 g
  LIVER: 12.4 g
  A/G: 0.9
  ALP: 1837.2 IU/L
  ALT: 37 IU/L
  AST: 63.8 IU/L
  BUN: 17 mg/dL
  CRE: 0.2 mg/dL
  Ca: 11 mg/dL
  Cl: 106 meq/L
  DBIL: 0.022 mg/dL
  GLC: 177.6 mg/dL
  IP: 6.8 mg/dL
  K: 4.1 meq/L
  LDH: 65.6 IU/L
  Na: 143.2 meq/L
  PL: 138.6 mg/dL
  RALB: 2.7 g/dL
  TBIL: 0.066 mg/dL
  TC: 70.6 mg/dL
  TG: 106 mg/dL
  TP: 5.8 g/dL
  gamma-GTP: 1 IU/L
[3]
  TERMINAL_BW: 342.6 g
  APTT: 14.9 s
  Bas: 0.2%
  Eos: 1%
  Fbg: 273 mg/dL
  Hb: 13.4 g/dL
  Ht: 39%
  Lym: 73.8%
  MCH: 20.2 pg
  MCHC: 34.1%
  MCV: 59.3 fL
  Mono: 2.2%
  Neu: 22.6%
  PT: 11.2 s
  Plat: 158.2 x10_4/uL
  RBC: 661.2 x10_4/ul
  Ret: 7.2%
  WBC: 97.7 x10_2/uL
  KIDNEY_L: 1.3 g
  KIDNEY_R: 1.2 g
  KIDNEY_TOTAL: 2.5 g
  LIVER: 14.8 g
  A/G: 0.8
  ALP: 1483.2 IU/L
  ALT: 36.6 IU/L
  AST: 58.6 IU/L
  BUN: 15.4 mg/dL
  CRE: 0.2 mg/dL
  Ca: 11 mg/dL
  Cl: 104.6 meq/L
  DBIL: 0.022 mg/dL
  GLC: 172.2 mg/dL
  IP: 6.3 mg/dL
  K: 3.9 meq/L
  LDH: 79.4 IU/L
  Na: 143.2 meq/L
  PL: 147 mg/dL
  RALB: 2.7 g/dL
  TBIL: 0.052 mg/dL
  TC: 76.6 mg/dL
  TG: 133.4 mg/dL
  TP: 6.2 g/dL
  gamma-GTP: 1 IU/L
[4]
  TERMINAL_BW: 438.3 g
  APTT: 17.5 s
  Bas: 0.4%
  Eos: 0.8%
  Fbg: 284.2 mg/dL
  Hb: 14.9 g/dL
  Ht: 42.2%
  Lym: 78%
  MCH: 20.2 pg
  MCHC: 35.3%
  MCV: 57.2 fL
  Mono: 2%
  Neu: 17.6%
  PT: 11.9 s
  Plat: 120.3 x10_4/uL
  RBC: 738.4 x10_4/ul
  Ret: 2.2%
  WBC: 122.3 x10_2/uL
  KIDNEY_L: 1.5 g
  KIDNEY_R: 1.4 g
  KIDNEY_TOTAL: 2.9 g
  LIVER: 17.8 g
  A/G: 0.7
  ALP: 1089.4 IU/L
  ALT: 34.4 IU/L
  AST: 56.6 IU/L
  BUN: 15.2 mg/dL
  CRE: 0.2 mg/dL
  Ca: 10.9 mg/dL
  Cl: 105.2 meq/L
  DBIL: 0.02 mg/dL
  GLC: 176.4 mg/dL
  IP: 5.9 mg/dL
  K: 3.7 meq/L
  LDH: 67.6 IU/L
  Na: 144.4 meq/L
  PL: 141.2 mg/dL
  RALB: 2.7 g/dL
  TBIL: 0.058 mg/dL
  TC: 67.8 mg/dL
  TG: 168.2 mg/dL
  TP: 6.4 g/dL
  gamma-GTP: 1 IU/L
[5]
  TERMINAL_BW: 237.7 g
  APTT: 13.9 s
  Bas: 0.2%
  Eos: 0.8%
  Fbg: 280.2 mg/dL
  Hb: 13.3 g/dL
  Ht: 38.9%
  Lym: 75%
  MCH: 21.1 pg
  MCHC: 34.2%
  MCV: 61.5 fL
  Mono: 2.4%
  Neu: 20.8%
  PT: 11.9 s
  Plat: 149.6 x10_4/uL
  RBC: 632.8 x10_4/ul
  Ret: 5.9%
  WBC: 114.1 x10_2/uL
  KIDNEY_L: 1 g
  KIDNEY_R: 1 g
  KIDNEY_TOTAL: 1.9 g
  LIVER: 11.4 g
  A/G: 0.8
  ALP: 1752.4 IU/L
  ALT: 41 IU/L
  AST: 68.6 IU/L
  BUN: 16.2 mg/dL
  CRE: 0.2 mg/dL
  Ca: 10.9 mg/dL
  Cl: 106.6 meq/L
  DBIL: 0.018 mg/dL
  GLC: 181.4 mg/dL
  IP: 7.7 mg/dL
  K: 4.1 meq/L
  LDH: 63 IU/L
  Na: 143.6 meq/L
  PL: 146.2 mg/dL
  RALB: 2.7 g/dL
  TBIL: 0.032 mg/dL
  TC: 78.4 mg/dL
  TG: 114.4 mg/dL
  TP: 6 g/dL
  gamma-GTP: 1 IU/L
[6]
  TERMINAL_BW: 279.3 g
  APTT: 13.6 s
  Bas: 0.2%
  Eos: 0.4%
  Fbg: 279.2 mg/dL
  Hb: 13.4 g/dL
  Ht: 39.2%
  Lym: 69.8%
  MCH: 20.6 pg
  MCHC: 34.1%
  MCV: 60.6 fL
  Mono: 2.8%
  Neu: 26.2%
  PT: 11.3 s
  Plat: 144.1 x10_4/uL
  RBC: 648 x10_4/ul
  Ret: 5.5%
  WBC: 107.7 x10_2/uL
  KIDNEY_L: 1.1 g
  KIDNEY_R: 1.1 g
  KIDNEY_TOTAL: 2.2 g
  LIVER: 13 g
  A/G: 0.8
  ALP: 1642 IU/L
  ALT: 40.8 IU/L
  AST: 65 IU/L
  BUN: 16.8 mg/dL
  CRE: 0.2 mg/dL
  Ca: 11.4 mg/dL
  Cl: 104.6 meq/L
  DBIL: 0.026 mg/dL
  GLC: 182 mg/dL
  IP: 7.2 mg/dL
  K: 4.2 meq/L
  LDH: 60.6 IU/L
  Na: 143.6 meq/L
  PL: 143.8 mg/dL
  RALB: 2.7 g/dL
  TBIL: 0.07 mg/dL
  TC: 75.4 mg/dL
  TG: 105.6 mg/dL
  TP: 6 g/dL
  gamma-GTP: 1.4 IU/L
[7]
  TERMINAL_BW: 335.7 g
  APTT: 15.6 s
  Bas: 0%
  Eos: 0.8%
  Fbg: 283.8 mg/dL
  Hb: 14.1 g/dL
  Ht: 40.9%
  Lym: 78%
  MCH: 20.6 pg
  MCHC: 34.6%
  MCV: 59.5 fL
  Mono: 1.8%
  Neu: 19%
  PT: 11.5 s
  Plat: 146.2 x10_4/uL
  RBC: 687 x10_4/ul
  Ret: 4.3%
  WBC: 125.5 x10_2/uL
  KIDNEY_L: 1.2 g
  KIDNEY_R: 1.2 g
  KIDNEY_TOTAL: 2.3 g
  LIVER: 15.9 g
  A/G: 0.8
  ALP: 1500.2 IU/L
  ALT: 38.8 IU/L
  AST: 64.6 IU/L
  BUN: 17 mg/dL
  CRE: 0.2 mg/dL
  Ca: 11.1 mg/dL
  Cl: 104.8 meq/L
  DBIL: 0.02 mg/dL
  GLC: 174.4 mg/dL
  IP: 7.1 mg/dL
  K: 3.8 meq/L
  LDH: 72.4 IU/L
  Na: 143.2 meq/L
  PL: 146.4 mg/dL
  RALB: 2.7 g/dL
  TBIL: 0.05 mg/dL
  TC: 70.4 mg/dL
  TG: 145 mg/dL
  TP: 6.2 g/dL
  gamma-GTP: 1 IU/L
[8]
  TERMINAL_BW: 440.9 g
  APTT: 16.1 s
  Bas: 0.2%
  Eos: 1%
  Fbg: 270.4 mg/dL
  Hb: 14.7 g/dL
  Ht: 41.8%
  Lym: 77.6%
  MCH: 19.6 pg
  MCHC: 35.1%
  MCV: 55.7 fL
  Mono: 1.4%
  Neu: 19.2%
  PT: 11.9 s
  Plat: 114.6 x10_4/uL
  RBC: 750.8 x10_4/ul
  Ret: 2.7%
  WBC: 114 x10_2/uL
  KIDNEY_L: 1.4 g
  KIDNEY_R: 1.4 g
  KIDNEY_TOTAL: 2.8 g
  LIVER: 17.9 g
  A/G: 0.8
  ALP: 1150 IU/L
  ALT: 34.2 IU/L
  AST: 57.6 IU/L
  BUN: 16 mg/dL
  CRE: 0.2 mg/dL
  Ca: 10.9 mg/dL
  Cl: 105.4 meq/L
  DBIL: 0.02 mg/dL
  GLC: 177.6 mg/dL
  IP: 6.5 mg/dL
  K: 4 meq/L
  LDH: 64 IU/L
  Na: 144.4 meq/L
  PL: 133 mg/dL
  RALB: 2.7 g/dL
  TBIL: 0.056 mg/dL
  TC: 67 mg/dL
  TG: 112.4 mg/dL
  TP: 6.4 g/dL
  gamma-GTP: 1 IU/L
